Measurements: patent US11504371B2, “Quinazolines compound, preparation method therefor and application thereof” (Beijing Normal University, priority 2017, dated 2022)
Values joined by “and” are separate entries in the source; they are usually repeats but may differ in a detail not shown here. Equal entries are not always repeated. “Also recorded” adds a separate entry of the source. Where two headings read alike, the source gives them in different places. Marks after values point to notes of the source that are not given here.

Assays:
[1] = system: human lung cancer cell line (A549); assay: MTT assay, tumor cell proliferation inhibition, A549; assay type: cell-based; conditions: for IC50: A549, MTT, 72 h, read-out: Tumor inhibition rate (IC50)
Description: (§1) Cell lines to be tested: human hepatoma cell line (HepG2), human lung cancer cell line (A549), human prostate cancer cell line (DU145), human breast cancer cell line (MCF-7), human neuroblastoma cell line (SH-SY5Y), human gastric mucosal cell line (Ges-1) and human embryonic lung fibroblast cell line (CCC-HPF-1) (the cells to be tested were purchased from the Cancer Hospital of Chinese Academy of Medical Sciences).
(§2) The cells in logarithmic growth phase were treated to prepare a single cell suspension, with the cell density adjusted, which was seeded in a 96-well cell culture plate. About 2×10^3 cells were contained in 100 μL per well, and cultured in a cell incubator at 37° C., 5% CO2, and saturated humidity for 24 h. The used medium was aspirated and abandoned, and then 100 μL of the target compound in different concentrations (0.1 μM-100 μM) were added for drug treatment. Five duplicate wells were prepared for each concentration. The background blank well, negative control well and positive control well were also prepared. All the wells were placed in a cell culture incubator at 37° C., 5% CO2, saturated humidity for another 72 h. Then, each well was added with 10 μL of MTT solution (5 mg/mL) and incubated for another 4 h. After that, each well was added with 100 μL of 10% SDS-0.1% NH4Cl (10% SDS purchased from Beijing Mengyimei Biotechnology Co., Ltd.) solution, and incubated at 37° C. for 10 h in the dark. Then, the absorbance OD was measured at 570 nm using a microplate reader at a reference wavelength of 650 nm. Cell proliferation inhibition was calculated according to the following formula: % inhibition=(ODcontrol−ODtreat)(ODcontrol−ODblank)×100. […] Each group was performed at least three times in parallel.

HepG2 cancer cells = assay: Nude mice bearing HepG2 cancer cells
Description: Firstly, a tumor-bearing nude mouse model was established. […] Then, grouping and administration were performed; the nude mice (5 mice in each group) were randomly divided into several groups, such as ultra-pure water control group (blank), positive drug control group, and different dosage treatment groups. The nude mice in each group were administered continuously for 40 days. The nude mice were weighted every other day during the administration. Tumor volumes were measured and calculated.

[2] = system: human hepatoma cell line (HepG2); assay: MTT assay, tumor cell proliferation inhibition, HepG2; assay type: cell-based; conditions: 72 h, read-out: Tumor inhibition rate (IC50)
Description: as §1, §2

[3] = system: human breast cancer cell line (MCF-7); assay: MTT assay, tumor cell proliferation inhibition, MCF-7; assay type: cell-based; conditions: MCF-7, MTT, 72 h, read-out: Tumor inhibition rate (IC50)
Description: as §1, §2

[4] = system: human prostate cancer cell line (DU145); assay: MTT assay, tumor cell proliferation inhibition, DU145; assay type: cell-based; conditions: DU145, MTT, 72 h, read-out: Tumor inhibition rate (IC50)
Description: as §1, §2

[5] = system: human neuroblastoma cell line (SH-SY5Y); assay: MTT assay, tumor cell proliferation inhibition, SH-SY5Y; assay type: cell-based; conditions: SH-SY5Y, 72 h, read-out: Tumor inhibition rate (IC50)
Description: as §1, §2

[6] = system: tumor cell strains HepG2, A549, MCF-7, DU145 and SH-SY5Y; assay: MTT assay, summary over the five tumor cell lines; assay type: cell-based, human; conditions: HepG2, A549, MCF-7, DU145, SH-SY5Y
Description: as §1
The cells in logarithmic growth phase were treated to prepare a single cell suspension, with the cell density adjusted, which was seeded in a 96-well cell culture plate. About 2×10^3 cells were contained in 100 μL per well, and cultured in a cell incubator at 37° C., 5% CO2, and saturated humidity for 24 h. The used medium was aspirated and abandoned, and then 100 μL of the target compound in different concentrations (0.1 μM-100 μM) were added for drug treatment. Five duplicate wells were prepared for each concentration. The background blank well, negative control well and positive control well were also prepared. All the wells were placed in a cell culture incubator at 37° C., 5% CO2, saturated humidity for another 72 h. Then, each well was added with 10 μL of MTT solution (5 mg/mL) and incubated for another 4 h. After that, each well was added with 100 μL of 10% SDS-0.1% NH4Cl (10% SDS purchased from Beijing Mengyimei Biotechnology Co., Ltd.) solution, and incubated at 37° C. for 10 h in the dark. Then, the absorbance OD was measured at 570 nm using a microplate reader at a reference wavelength of 650 nm. Cell proliferation inhibition was calculated according to the following formula: % inhibition=(ODcontrol−ODtreat)(ODcontrol−ODblank)×100. IC50 value, i.e., 50% proliferation inhibition concentration, was calculated by SPSS 16.0 software. Each group was performed at least three times in parallel.
The inhibitory activities of 35 target compounds against tumor cell strains HepG2, A549, MCF-7, DU145 and SH-SY5Y were tested by MTT assay (Table 1). Some compounds with optimal antitumor activity were selected.

A549 cancer cells = assay: Nude mice bearing A549 cancer cells; assay type: in vivo
Description: In the present invention, the antitumor activity was evaluated by intraperitoneal injection to nude mice bearing different tumors, for compounds 3 (N-(4-((4-nitrophenyl)methoxy)phenyl)-6,7-(benzo-9-crown-3)-4-quinazolinamine) and 23 (compounds No. are shown in Table 1) (N-(3-((4-trifluoromethylphenyl)methoxy)phenyl)-6,7-(benzo-12-crown-4)-4-quinazolinamine) of formula (I).
Firstly, a tumor-bearing nude mouse model was established. 0.2-1 mL of cell suspension was inoculated subcutaneously into the left lower limb of nude mice, and the drug was administered when the tumor volume reached about 100 mm^3. Then, grouping and administration were performed; the nude mice (5 mice in each group) were randomly divided into several groups, such as ultra-pure water control group (blank), positive drug control group, and different dosage treatment groups. The nude mice in each group were administered continuously for 40 days. The nude mice were weighted every other day during the administration. Tumor volumes were measured and calculated. Then tumor growth curve, tumor inhibition curve (see FIGS. 1 and 3) and weight change curve (see FIGS. 2 and 4) were drawn. […]. Among those, docetaxel suffers from high cumulative neurotoxic toxicity and drug resistance although it has the best effect. Comparing to docetaxel, compound 23 has a much lower toxicity and drug resistance, and thus has a great development prospect. […]

cell membrane = assay: Cell membrane permeability test (Hoechst 33342 fluorescence); assay type: cell-based; conditions: Hoechst 33342 fluorescence observation
Source text: One of the anilino polyethylene glycol ether cycloquinazoline substituted with a substituted arylmethyl heteroatomic group of formula (I), N-(4-((4-nitrophenyl)methoxy)phenyl)-6,7-(benzo-9-crown-3)-4-quinazolinamine, is studied by cell membrane permeability test. […] As the concentration of the target compound increases, the permeability is improved and the cells undergo apoptosis.

A549 cells = assay: Cell cycle experiment (PI staining, flow cytometer); assay type: cell-based, human; conditions: for Cell proportion, G0/G1 / Cell proportion, G2/M / Cell proportion, S: 48 h
Description: Experiment procedure: A549 cells in logarithmic growth phase (purchased from the Cancer Hospital of Chinese Academy of Medical Sciences) were seeded into 6-well cell culture plates, adjusted to 5×10^5 cells per well, and cultured in an incubator at 37° C., 5% CO2, and saturated humidity for 24 h. The used medium was discarded. The cells were treated with the target compounds in different concentrations for 48 h, and grouped to an administration group and a control group (non-administered). The cells were digested with 0.25% trypsin to form a single cell suspension, centrifuged at 1500 r/min for 5 min. The supernatant was discarded, and the cells were collected. The cells were washed twice with precooled PBS buffer, centrifuged at 1500 r/min for 5 min, added to 5 mL of precooled 70% ethanol, and placed at 4° C. for at least 24 h. After centrifugation, the supernatant was discarded, and the cells were washed twice with PBS and collected by centrifugation. The cells were suspended in 400 μL PBS, added with 30 μL of RNaseA (purchased from Corning Inc., USA) at the concentrations from 1 mg/mL to 50 μg/mL, and incubated at 37° C. for 30 min. The centrifuge tube was then inserted into an ice bath to stop digestion. After the tube was cooled, 50 μL of PI staining solution (500 μg/mL) (purchased from Corning Inc., USA) was added to a final concentration of 50 μg/mL. The tube was immersed in an ice bath to perform straining in the dark for 30 min-40 min, filtered through a 300 mesh nylon mesh, and tested by flow cytometer (FACS Vantage SE: BD, USA).

cells A549 = assay: Intracellular reactive oxygen species (fluorescence spectrometer); assay type: cell-based, human; conditions: A549 after treatment
Source text: A part of the compound of anilino polyethylene glycol ether cycloquinazoline substituted with a substituted arylmethyl heteroatomic group represented by formula (I) are studied by detecting cell mitochondrial membrane potential and intracellular reactive oxygen species.

## FC(F)(F)c1ccc(COc2ccc(Nc3ncnc4cc5c(cc34)OCCOCCOCCOCCO5)cc2)cc1 [Compound 35, N-(4-((4-trifluoromethylphenyl)methoxy)phenyl)-6,7-(benzo-15-crown-5)-4-quinazolinamine]
[1]; Homo sapiens
  IC50: 8.56 µM
HepG2 cancer cells; 20 mg/Kg, single agent
  body weight of the mice (FIG. 6): significantly increased
HepG2 cancer cells; 40 mg/Kg, single agent
  weight loss of nude mice (FIG. 6): weight loss of nude mice is similar
HepG2 cancer cells; nude mice bearing HepG2, single agent
  tumor growth (tumor volume, FIG. 5): can slow down the tumor growth with increasing drug dose
[2]; Homo sapiens
  IC50: 3.34 µM
[3]; Homo sapiens, MCF7
  IC50: 10 µM
other
  melting point: 197 to 198 °C
[4]; Homo sapiens, DU-145
  IC50: 8.8 µM
[5]; Homo sapiens
  IC50: 2.14 µM
[6]
  inhibitory effect on proliferation of the five tumor cells (in words): good inhibitory effect on proliferation of at least three of the five tumor cells; also recorded: high anticancer activity on all the five tumor cells

## O=[N+]([O-])c1ccc(COc2ccc(Nc3ncnc4cc5c(cc34)OCCOCCO5)cc2)cc1 [Compound 3, N-(4-((4-nitrophenyl)methoxy)phenyl)-6,7-(benzo-9-crown-3)-4-quinazolinamine]
A549 cancer cells; 60 mg/Kg, FIG. 1
  tumor inhibition: significant inhibited
A549 cancer cells; 60 mg/Kg, FIG. 2
  body weight: not decreased significantly
A549 cancer cells; nude mice bearing A549, intraperitoneal injection
  tumor inhibitory effect (tumor volume, FIG. 1): remarkable tumor inhibitory effect; also recorded: high inhibitory effect
A549 cancer cells; same dose 45 mg/Kg, FIG. 1
  inhibitory activity against A549 compared with gefitinib: significantly higher
[1]; Homo sapiens
  IC50: 6.62 µM
[1]; MTT, summary of Table 1
  inhibitory activity on A549 (in words): strong specific inhibitory activity
Cell membrane
  effect on cell membrane permeability: can increase the permeability of the cell membrane
A549 cells; A549, 0-40 μM
  cell cycle block (in words): can block A549 in G0/G1 phase
A549 cells; A549, 5 μM
  Cell proportion, G0/G1: 84.51 ± 0.32 ^a %
  Cell proportion, G2/M: 3.06 ± 0.12 ^ %
  Cell proportion, S: 12.42 ± 0.10%
A549 cells; A549, 10 μM
  Cell proportion, G0/G1: 85.58 ± 0.44 ^a %
  Cell proportion, G2/M: 3.05 ± 0.19 ^ %
  Cell proportion, S: 11.39 ± 0.64%
A549 cells; A549, 20 μM
  Cell proportion, G0/G1: 87.23 ± 0.31 ^a %
  Cell proportion, G2/M: 1.41 ± 0.05 ^a %
  Cell proportion, S: 11.68 ± 0.26%
A549 cells; A549, 40 μM
  Cell proportion, G0/G1: 90.08% and 90.08 ± 0.62 ^a %
  Cell proportion, G2/M: 2.04 ± 0.14 ^a %
  Cell proportion, S: 7.90 ± 0.50 ^a %
Cells A549
  intracellular reactive oxygen species (ROS): increased intracellular reactive oxygen species (ROS) and apoptosis
[2]; Homo sapiens
  IC50: > 100 µM
[3]; Homo sapiens, MCF7
  IC50: 39.7 µM
[4]; Homo sapiens, DU-145
  IC50: > 100 µM
[5]; Homo sapiens
  IC50: 55.2 µM

## O=[N+]([O-])c1ccc(COc2cccc(Nc3ncnc4cc5c(cc34)OCCOCCOCCOCCO5)c2)cc1 [Compound 31, N-(3-((4-nitrophenyl)methoxy)phenyl)-6,7-(benzo-15-crown-5)-4-quinazolinamine]
[1]; Homo sapiens
  IC50: 19.8 µM
[2]; Homo sapiens
  IC50: 9.82 µM
[3]; Homo sapiens, MCF7
  IC50: 6.41 µM
other
  melting point: 136 to 137 °C
[4]; Homo sapiens, DU-145
  IC50: 13.8 µM
[5]; Homo sapiens
  IC50: 8.42 µM
[6]
  inhibitory effect on proliferation of the five tumor cells (in words): good inhibitory effect on proliferation of at least three of the five tumor cells

## c1ccc(COc2ccc(Nc3ncnc4cc5c(cc34)OCCOCCOCCOCCO5)cc2)cc1 [Compound 29, N-(4-((phenyl)methoxy)phenyl)-6,7-(benzo-15-crown-5)-4-quinazolinamine]
[1]
  IC50: 29.5 µM
[2]
  IC50: 11.9 µM
[3]
  IC50: 12 µM
[4]
  IC50: 8.8 µM
[5]
  IC50: 5.25 µM
[6]
  inhibitory effect on proliferation of the five tumor cells (in words): good inhibitory effect on proliferation of at least three of the five tumor cells
